Results reported in ChEMBL document CHEMBL1201862, “PubChem BioAssay data set” (2004).
Activity calls are given as the source filed them.

Key:
Major prion protein = Major prion protein (Homo sapiens, UniProt P04156); type: functional, cell-based
cells [1] = experiment: cells
[2] = target: T1, Trace amine-associated receptor 1 (Homo sapiens, UniProt Q96RJ0); experiment: Fluorescence-based cell-based high throughput dose response assay to identify agonists of the human trace amine associated receptor 1 (TAAR1).; type: functional
T1 sequence (Q96RJ0 whole entry): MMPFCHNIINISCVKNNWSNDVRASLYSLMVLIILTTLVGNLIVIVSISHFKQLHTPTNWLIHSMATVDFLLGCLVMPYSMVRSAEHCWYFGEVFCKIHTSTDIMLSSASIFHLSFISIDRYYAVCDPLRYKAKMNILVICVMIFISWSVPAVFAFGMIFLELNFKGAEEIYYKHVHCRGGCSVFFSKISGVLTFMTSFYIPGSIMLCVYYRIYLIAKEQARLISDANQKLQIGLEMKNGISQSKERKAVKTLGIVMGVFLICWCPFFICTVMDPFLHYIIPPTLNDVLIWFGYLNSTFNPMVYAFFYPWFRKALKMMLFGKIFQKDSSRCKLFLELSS

[3] = target: Voltage-dependent T-type calcium channel subunit alpha-1H (Homo sapiens, UniProt O95180); type: functional;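 note: channel activity triggered by adding a high calcium stimulation buffer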
Coagulation factor XII = target: T2, Coagulation factor XII (Homo sapiens, UniProt P00748); type: functional;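 note: activated factor XIIa alpha cleaving a fluorogenic AMC peptide substrate; inhibitor potency from loss of enzyme activity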
T2 sequence (P00748 whole entry): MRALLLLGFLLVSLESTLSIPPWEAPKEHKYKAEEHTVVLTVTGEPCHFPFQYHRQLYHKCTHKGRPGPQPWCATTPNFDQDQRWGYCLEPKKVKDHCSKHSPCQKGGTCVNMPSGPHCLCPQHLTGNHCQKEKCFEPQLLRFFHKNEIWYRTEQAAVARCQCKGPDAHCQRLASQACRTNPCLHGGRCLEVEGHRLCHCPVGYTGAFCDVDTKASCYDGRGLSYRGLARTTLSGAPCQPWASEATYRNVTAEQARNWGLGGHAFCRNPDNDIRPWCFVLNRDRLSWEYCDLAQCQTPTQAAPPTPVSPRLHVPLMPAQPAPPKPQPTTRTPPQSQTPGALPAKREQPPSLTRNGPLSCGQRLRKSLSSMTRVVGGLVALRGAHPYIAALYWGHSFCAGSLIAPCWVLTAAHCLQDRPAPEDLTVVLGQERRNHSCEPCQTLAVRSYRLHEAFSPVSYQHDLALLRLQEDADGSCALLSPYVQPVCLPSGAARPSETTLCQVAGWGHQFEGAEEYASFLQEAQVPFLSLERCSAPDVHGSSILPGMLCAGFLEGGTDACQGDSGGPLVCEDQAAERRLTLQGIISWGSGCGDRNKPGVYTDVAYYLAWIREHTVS

cells [4] = type: functional, cell-based
[5] = target: T1, Trace amine-associated receptor 1; experiment: Counterscreen for agonists of the human trace amine associated receptor 1 (hTAAR1): Fluorescence-based cell-based high throughput dose response assay to identify hTAAR1 agonist that also desensitize TAAR1 receptor response.; type: functional
cells [6] = type: functional, cell-based; remark: listed apart in the source
[7] = Luminescence-based cell-based high throughput dose response assay to identify activators of the DAF-12 from the parasite S. stercoralis (ssDAF-12).; type: functional
[8] = target: T3, Oxysterols receptor LXR-beta (Homo sapiens, UniProt P55055); experiment: LXR agonists, Gal4 luciferase reporter, dose response, counter-screen for ssDAF-12 agonist project, cell-based, luminescence, HEK293, S. stercoralis campaign (AID 720737); type: functional; conditions: read-out: IC50 (the source's name)
T3 sequence (P55055 whole entry): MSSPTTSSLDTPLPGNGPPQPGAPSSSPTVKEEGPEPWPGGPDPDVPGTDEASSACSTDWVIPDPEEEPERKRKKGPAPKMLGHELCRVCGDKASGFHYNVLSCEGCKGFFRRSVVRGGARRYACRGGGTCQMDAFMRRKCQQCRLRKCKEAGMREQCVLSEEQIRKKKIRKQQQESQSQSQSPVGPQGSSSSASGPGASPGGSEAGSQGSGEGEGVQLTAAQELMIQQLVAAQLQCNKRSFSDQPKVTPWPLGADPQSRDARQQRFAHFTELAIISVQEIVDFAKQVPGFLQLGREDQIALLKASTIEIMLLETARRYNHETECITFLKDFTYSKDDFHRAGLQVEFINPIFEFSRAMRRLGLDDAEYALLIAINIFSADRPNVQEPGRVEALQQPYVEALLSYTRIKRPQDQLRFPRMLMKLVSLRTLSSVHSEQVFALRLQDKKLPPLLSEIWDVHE

Genome polyprotein = Genome polyprotein (dengue virus type 2, UniProt P29990); experiment: flavivirus cap methylation enzyme inhibition – biochemical, confirmation dose response, primary screen (AID 588689); type: functional
Caspase-6 = target: T4, Caspase-6 (Homo sapiens, UniProt P55212); experiment: inhibition of CASP6 peptide cleavage – biochemical, VEID-R110 fluorescence, cherry-pick, dose response (AID 720632)
T4 sequence (P55212 whole entry): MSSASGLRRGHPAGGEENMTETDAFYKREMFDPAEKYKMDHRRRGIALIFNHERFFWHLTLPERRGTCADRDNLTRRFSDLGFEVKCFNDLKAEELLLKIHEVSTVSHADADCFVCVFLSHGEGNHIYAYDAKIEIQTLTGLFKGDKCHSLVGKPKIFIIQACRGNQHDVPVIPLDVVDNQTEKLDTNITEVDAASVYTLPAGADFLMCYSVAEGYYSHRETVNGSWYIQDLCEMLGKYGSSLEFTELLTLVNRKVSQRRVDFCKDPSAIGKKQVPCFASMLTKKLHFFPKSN

Paired box protein Pax-8 = Paired box protein Pax-8 (Homo sapiens, UniProt Q06710); experiment: PAX8 transcriptional activity inhibition in RMG-I – RMG-I cells, luciferase, cherry-pick, dose response (AID 687027); type: functional, cell-based;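 note: luciferase reporter driven by Pax8 target thyroperoxidase promoter measured by SteadyGlo luminescence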
[9] = OVCAR-3 cell viability loss – plate reader, dry powder samples, PAX8 inhibitor project, dose response (AID 743044); type: functional, cell-based
[10] = reduced cellular PGC1a acetyl-lysine signal – cell-based, cherry-picked samples, dose response (AID 720514); type: functional;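 note: potency may reflect raised or lowered acetylation signal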
[11] = OVCAR8 cell viability loss – plate reader, dry powder samples, PAX8 project, dose response (AID 743197); type: functional, cell-based; conditions: OVCAR-8
[12] = toxicity toward HepG2 liver cells – cell-based, plate reader, cherry-pick, antagonist series, cytotoxicity control, dose response (AID 743416); type: functional
[13] = IGROV1 cell killing – plate reader, dry powder samples, PAX8 inhibitor project, dose response (AID 743043); type: functional, cell-based; conditions: IGROV-1
[14] = A549 cell cytotoxicity, dose response, cytotoxicity control, plate reader, cherry-pick, antagonist series (AID 743412); type: functional, cell-based
[15] = blockade of melanocortin 4 receptor signaling – cell-based, plate reader, cherry pick, counter-screen for LGR2 antagonist project, dose response (AID 743444); type: functional;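 note: transfected HEK 293 cells stimulated with alpha-MSH peptide; potency of inhibitors of the alpha-MSH evoked signal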
[16] = viability loss in HEK293 cells – cell-based, plate reader, cherry-picked samples, cytotoxicity control, dose response (AID 743446); type: functional
[17] = general cell-killing toxicity readout – plate reader, dry powder samples, cytotoxicity control for PAX8 inhibitor project, dose response (AID 743021); type: functional, cell-based

With `Cc1cc(SCCC(=O)O)nc2c(C)cccc12` the IC50 (Major prion protein) was 4.67 µM (active) and the IC50 (cells [1]) was > 138 µM (inactive).
For `Cc1ccc(-c2nc(CS(=O)(=O)CC(=O)N3CCc4ccccc4C3)c(C)o2)cc1`, the EC50 [2] was 2.23 µM (active), the EC50 [3] was 2.21 µM (active) and the IC50 (Coagulation factor XII) was > 50 µM (inactive). The EC50 (cells [4]) was > 29.9 µM (inactive), the IC50 [5] was 5.4 µM (active) and the IC50 (cells [6]) was > 29.9 µM (inactive).
For `Cc1ccc(NC(=O)Nc2cccc(C(F)(F)F)c2)nc1`, the IC50 [7] was > 67.6 µM (inactive) and the EC50 [8] was > 67.6 µM (inactive).
For `COC(=O)c1c(C)oc2c1cc(NS(=O)(=O)c1ccc(C(=O)O)cc1)c1ccccc12`, the IC50 (Genome polyprotein) was 69 µM (active) and the AC50 (Caspase-6) was 22.6 µM (active).
For `Cc1ccc(NC(=O)c2ccccn2)c(Br)c1`, the IC50 [7] was > 67.5 µM (inactive) and the EC50 [8] was > 67.5 µM (inactive).
In the case of `CN(CC(=O)Nc1cccc(F)c1)C(=O)c1cccc(S(=O)(=O)N2CCN(Cc3ccccc3)CC2)c1`, the IC50 [7] is reported as > 67.5 µM (inactive) and the EC50 [8] is reported as > 67.5 µM (inactive).
With `Cc1ccc(S(=O)(=O)N(C)C[C@H]2Oc3cc(C#Cc4ccncc4)ccc3S(=O)(=O)N([C@H](C)CO)C[C@H]2C)cc1` the AC50 (Paired box protein Pax-8) was 4.03 µM (active), the AC50 [9] was 9.03 µM (active) and the AC50 [10] was 4.27 µM (active). The AC50 [11] was 17.4 µM (active).
In the case of `C[C@@H]1CCCCO[C@H](CN(C)CC2CCCCC2)[C@H](C)CN([C@H](C)CO)C(=O)c2cc(NS(=O)(=O)c3ccccc3)ccc2O1`, the AC50 [12] is reported as 27.6 µM (active), the AC50 [13] is reported as 57.1 µM (active) and the AC50 (Paired box protein Pax-8) is reported as 20.1 µM (active). The AC50 [14] was 17.1 µM (active), the AC50 [9] was 55 µM (active) and the AC50 [15] was 42.6 µM (active). The AC50 [16] was 30.8 µM (active), the AC50 [11] was > 70 µM (inactive) and the AC50 [17] was 39.7 µM (active).
For `COc1ccc(-c2ccc([C@@H]3[C@@H]4CN(C(=O)Nc5cccc(F)c5)C[C@H]3N4)cc2)cc1`, the AC50 [13] was 28.4 µM (active), the AC50 (Paired box protein Pax-8) was 5.09 µM (active) and the AC50 [9] was 18.9 µM (active). For the same molecule, the AC50 [11] was 58.5 µM (active) and the AC50 [17] was 41 µM (active).
With `COC(=O)C1=C(C)N(Cc2cccc(C(F)(F)F)c2)C(NCc2ccc(OC)cc2)=NC1c1cccc(F)c1` (stereo not drawn) the AC50 (Paired box protein Pax-8) was 11.5 µM (active) and the AC50 [17] was 33.3 µM (active).
With `CC(C)C#Cc1ccc2c(c1)O[C@@H](CN(C)Cc1ccccc1)[C@@H](C)CN([C@@H](C)CO)S2(=O)=O` the AC50 [10] was 16 µM (active).
With `COCc1ccc(CN2CCC(n3nccc3NC(=O)c3ccc4c(c3)OCO4)CC2)o1` the AC50 [10] was 29.9 µM (active).
